For data set [1], the system named is Rad50 WT (Saccharomyces cerevisiae). Put plainly: EMSA. To be noted: ATP, 5 mM Mg2+, 150 mM NaCl; 25 mM Tris-Cl pH 7.6, 150 mM NaCl (also 50, 250, 300 mM), 7.5% glycerol, 1 mM beta-mercaptoethanol, 0.125% Igepal, 5 mM MgCl2, with or without 5 mM ATP; 5 nM …. For orientation: A gel shift assay detects complexes by their altered migration in electrophoresis.
The target of data set [2] is T1, Rad50 (Saccharomyces cerevisiae, UniProt P12753, D67Y).
T1 construct: full-length Rad50 with C-terminal 1xFLAG tag (DYKDDDDK), tag kept; plasmid pR50.1 (2mu, GAL-PGK-RAD50); overexpressed and purified from yeast
T1 sequence (P12753 1-1312 D67Y): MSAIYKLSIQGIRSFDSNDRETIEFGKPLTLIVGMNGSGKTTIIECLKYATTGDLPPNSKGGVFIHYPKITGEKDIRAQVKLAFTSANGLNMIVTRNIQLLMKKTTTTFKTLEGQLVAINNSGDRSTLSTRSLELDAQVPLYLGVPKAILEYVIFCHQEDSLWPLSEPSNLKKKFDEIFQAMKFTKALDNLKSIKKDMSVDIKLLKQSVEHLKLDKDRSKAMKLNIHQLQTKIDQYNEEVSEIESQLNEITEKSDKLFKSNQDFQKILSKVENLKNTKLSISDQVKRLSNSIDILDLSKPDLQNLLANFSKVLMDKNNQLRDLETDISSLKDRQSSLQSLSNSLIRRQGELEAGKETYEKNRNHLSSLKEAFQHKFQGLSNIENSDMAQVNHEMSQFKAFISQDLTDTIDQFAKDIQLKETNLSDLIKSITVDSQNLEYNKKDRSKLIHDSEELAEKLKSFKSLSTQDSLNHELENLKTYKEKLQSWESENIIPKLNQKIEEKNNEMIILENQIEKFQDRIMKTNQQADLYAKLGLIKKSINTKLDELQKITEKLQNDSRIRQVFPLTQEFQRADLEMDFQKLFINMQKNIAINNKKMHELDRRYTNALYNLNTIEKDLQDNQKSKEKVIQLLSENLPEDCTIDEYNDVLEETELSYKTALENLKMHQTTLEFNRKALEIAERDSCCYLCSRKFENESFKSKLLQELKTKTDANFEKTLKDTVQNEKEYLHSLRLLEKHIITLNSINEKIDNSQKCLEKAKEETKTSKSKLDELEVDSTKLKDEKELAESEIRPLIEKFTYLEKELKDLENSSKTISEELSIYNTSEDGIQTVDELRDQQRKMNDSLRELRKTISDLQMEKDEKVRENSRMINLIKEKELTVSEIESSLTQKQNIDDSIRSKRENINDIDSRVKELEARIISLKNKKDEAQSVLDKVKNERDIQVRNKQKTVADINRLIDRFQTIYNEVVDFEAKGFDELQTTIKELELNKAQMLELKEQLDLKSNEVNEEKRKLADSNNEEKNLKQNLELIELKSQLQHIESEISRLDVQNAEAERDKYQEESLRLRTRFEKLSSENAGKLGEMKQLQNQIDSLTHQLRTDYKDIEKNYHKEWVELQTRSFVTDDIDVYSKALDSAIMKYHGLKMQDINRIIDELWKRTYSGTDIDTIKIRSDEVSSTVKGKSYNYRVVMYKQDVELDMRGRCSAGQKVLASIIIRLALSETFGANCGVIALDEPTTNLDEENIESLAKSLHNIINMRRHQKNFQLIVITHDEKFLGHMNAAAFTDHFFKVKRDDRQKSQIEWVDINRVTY
As to the kind of experiment: nitrocellulose filter binding, […]-ATP. As to conditions: 2 uM Rad50, 50 uM ATP incl. 0.1 uM alpha-32P-ATP (labelled compound), 2 mM MgCl2, pH 8.0, RT then ice.

Data set [3] has as its target T2, Rad50 (Saccharomyces cerevisiae, UniProt P12753, D67N).
T2 construct: full-length Rad50 with C-terminal 1xFLAG tag (DYKDDDDK), tag kept; plasmid pR50.1 (2mu, GAL-PGK-RAD50); overexpressed and purified from yeast
T2 sequence (P12753 1-1312 D67N): T1 sequence (P12753 1-1312 D67Y) with Y67N
Put plainly: nitrocellulose filter binding, […]-ATP. To be noted: 2 uM Rad50, 50 uM ATP incl. 0.1 uM alpha-32P-ATP (labelled compound), 2 mM MgCl2, pH 8.0, RT then ice.

Data set [4] concerns the target T3, Rad50 (Saccharomyces cerevisiae, UniProt P12753, L1240F).
T3 construct: full-length Rad50 with C-terminal 1xFLAG tag (DYKDDDDK), tag kept; plasmid pR50.1 (2mu, GAL-PGK-RAD50); overexpressed and purified from yeast
T3 sequence (P12753 1-1312 L1240F): T1 sequence (P12753 1-1312 D67Y) with Y67D, L1240F
As to the kind of experiment: nitrocellulose filter binding, […]-ATP. To be noted: 2 uM Rad50, 50 uM ATP incl. 0.1 uM alpha-32P-ATP (labelled compound), 2 mM MgCl2, pH 8.0, RT then ice.

Data set [5] has as its target T4, Rad50 (Saccharomyces cerevisiae, UniProt P12753).
T4 construct: full-length Rad50 with C-terminal 1xFLAG tag (DYKDDDDK), tag kept; plasmid pR50.1 (2mu, GAL-PGK-RAD50); overexpressed and purified from yeast
T4 sequence (P12753 1-1312): T1 sequence (P12753 1-1312 D67Y) with Y67D
As to the kind of experiment: nitrocellulose filter binding, […]-ATP. As to conditions: 2 uM Rad50, 50 uM ATP incl. 0.1 uM alpha-32P-ATP (labelled compound), 2 mM MgCl2, pH 8.0, RT then ice.

Positions count from the first letter of the chain named. pKd: −log10 of the molar value.

For orientation: pKd means the Kd on a negative log10 scale, so that one unit is a factor of ten. Molecule 83-mer dsDNA oligonucleotide showed a pKd in data set [1] of 6.74.
With `Nc1ncnc2c1ncn2[C@@H]1O[C@H](COP(=O)(O)OP(=O)(O)OP(=O)(O)O)[C@@H](O)[C@H]1O` [ATP], the ATP/Rad50 was 0.7 ATP/Rad50 in data set [2], 0.6 ATP/Rad50 in data set [3] and 0.4 ATP/Rad50 in data set [4]. Further, the “molar ratio of bound ATP to Rad50” value in data set [5] was 1.1 ATP/Rad50.

Values taken from PMC7105138, “Modeling cancer genomic data in yeast reveals selection against ATM function during tumorigenesis” (PLoS Genetics, 2020).
